Measured values published in patent US20050060764A1, “Mouse model for bone metabolism” (priority 2003, published 2005).
Strand notation (5' to 3'): a small letter for the sugar, then the base; units joined by * are phosphorothioate-linked, units joined directly phosphodiester-linked; [ ] holds rarer units or linkages, { } end groups; capitals alone tell only the bases. e = 2'-O-(2-methoxyethyl) (MOE); [5mC] = 5-methylcytosine; d = 2'-deoxy (DNA)

Experiments:
RANK mRNA [1] = assay: RANK mRNA expression in mouse proximal tibia after antisense oligonucleotide treatment and PTH infusion: time course (Table 13); type: in vivo; conditions: for RANK mRNA % inhibition (normalized to PTH) Proximal Tibia: then 24 h PTH
Description: (§1) In accordance with the present invention, ISIS 181071 was administered to mice for different time periods to evaluate its ability to inhibit RANK expression and PTH-induced serum calcium concentration increase as a function of oligonucleotide treatment time.
(§2) Female Swiss-Webster mice (5-8 wks old) were fed a low-calcium diet and received daily subcutaneous injections of 30 mg/kg of ISIS 181071 (SEQ ID NO: 356) for 2, 3, 5, 7, 10, 14, or 21 days. At the end of the oligonucleotide treatment period, mice were infused with PTH by subcutaneously implanted mini-pumps at a dose of 1 ug/100 g/6 hr. A group of control mice were dosed with either saline, PTH alone (1 ug/100 g/6 hr) or calcitonin (400 ug) plus PTH (1 ug/100 g/6 hr). Following 24 hours of PTH infusion (total PTH delivery of 4ug/100 g), the mice were sacrificed and measurements were made of serum calcium with the Sigma Diagnostics Calcium Kit (Sigma-Aldrich) and RANK mRNA expression in the proximal tibia (as described in other examples herein). Percent RANK mRNA inhibition is normalized to PTH alone treatment.

[2] = Serum calcium after RANK antisense oligonucleotide treatment and PTH infusion: time course (Table 13); type: in vivo, mouse; conditions: for Serum calcium concentration: then 24 h PTH
Description: as §1, §2

RANK mRNA [3] = assay: RANK mRNA expression in mouse bone marrow after antisense oligonucleotide treatment and PTH infusion: time course (Table 13); type: in vivo; conditions: then 24 h PTH
Description: as §2

[4] = Short-term bone resorption model: serum calcium after PTH infusion (Table 6); type: in vivo, mouse; conditions: mice infused with PTH 1 ug/100 g/6 hr
Text: (§3) Parathyroidectomized rats are a well-established, short-term model of bone resorption and are useful in the investigation of antiresorptive agents. However, it is difficult to surgically remove only the parathyroid gland of rodents, and the inadvertent removal of the adjacent thyroid gland often has effects on thyroid hormone levels that introduce into the experiment an undesirable level of variability. Continuous infusion of parathyroid hormone (PTH) into intact, young (6-9 weeks old) mice reproduces the short-term bone resorption activity seen in parathyroidectomized rodents and is thus a useful, non-invasive model for the study of antiresorptive agents. The PTH infusion activates bone osteoclasts and causes them to degrade bone matrix, with a resulting rise in serum calcium. In accordance with the present invention, a short-term mouse model of bone resorption was developed and used to evaluate the effects of PTH infusion on serum calcium concentration and RANKL mRNA levels.
Female, Swiss-Webster mice (5-8 weeks old) were placed on a low calcium diet and implanted with mini-pumps delivering PTH continuously. The pumps were calibrated to deliver 1 ug PTH per 100 g bodyweight per 6 hour time period (1 ug/100 g/6 hr). With this procedure, over a 24 hour period, a total of 4 ug PTH per 100 g body weight is delivered (4 ug/100 g/24 hr). PTH infusion was conducted in these mice for 6, 12, 18 and 24 hours. At the end of each time period, the mice were sacrificed and measurements were made of the serum calcium, using the Sigma Diagnostics Calcium Kit (Sigma-Aldrich), and RANKL mRNA expression in the proximal tibia, as described in other examples herein. The data are expressed as percent increase relative to no PTH treatment.

RANKL mRNA [5] = assay: RANKL mRNA expression in primary mouse osteoblast cells after PTH treatment: time course (Table 7); type: cell-based; conditions: 10 nM PTH; for RANKL mRNA % control: primary osteoblast cells
Description: Primary mouse osteoblasts were prepared from calvaria of neonatal mice purchased from Charles River Laboratories. […] Cells were not passaged. Cells were seeded onto 6-well plates (Falcon-Primaria #353846) at a density of 50,000 cells/well for use in antisense oligonucleotide transfection.
In a further embodiment of this invention, the effect of PTH treatment on the expression of RANKL was determined in primary osteoblast cells isolated from mice skull caps. Primary osteoblastic cells were treated for 24 hours with either saline or the transfection reagent FuGENE 6 (Roche Applied Science, Indianapolis, Ind.). […] The RNA was then harvested and the expression levels of RANKL mRNA were measured by the methods described herein. The data are expressed as percent increase over untreated control cells.

RANKL mRNA [6] = assay: Short-term bone resorption model: RANKL mRNA expression in proximal tibia after PTH infusion (Table 6); type: in vivo, mouse; conditions: mice infused with PTH 1 ug/100 g/6 hr
Text: Probes and primers to mouse RANKL were designed to hybridize to a mouse RANKL sequence, using published sequence information (GenBank accession number AF013170.1, incorporated herein as SEQ ID NO:ll). For mouse RANKL the PCR primers were: • forward primer: […] (SEQ ID NO:12) • reverse primer: […] (SEQ ID NO: 13) and • the PCR probe was: FAM-[…]-TAMRA (SEQ ID NO: 14) where FAM is the fluorescent reporter dye and TAMRA is the quencher dye. For mouse GAPDH the PCR primers were: • forward primer: […](SEQ ID NO:15) • reverse primer: […](SEQ ID NO:16) and the • PCR probe was: 5′ JOE-[…]-TAMRA 3′ (SEQ ID NO: 17) where JOE is the fluorescent reporter dye and TAMRA is the quencher dye.
as §3
Female, Swiss-Webster mice (5-8 weeks old) were placed on a low calcium diet and implanted with mini-pumps delivering PTH continuously. The pumps were calibrated to deliver 1 ug PTH per 100 g bodyweight per 6 hour time period (1 ug/100 g/6 hr). […] The data are expressed as percent increase relative to no PTH treatment.

[7] = mice, 30 mg/kg daily s.c. for 2, 3, 5, 7, 10, 14, or 21 days, 24 hours PTH infusion

Question: Which results are given for “TCCTCGAGAGGTCTCCTTGC (antisense eT*e[5mC]*e[5mC]*eT*e[5mC]*dG*dA*dG*dA*dG*dG*dT*d[5mC]*dT*d[5mC]*e[5mC]*eT*eT*eG*e[5mC]) [ISIS 181071, 2′-MOE gapmer antisense oligonucleotide targeted to mouse RANK]”?
Answer: RANK mRNA % inhibition (normalized to PTH) Proximal Tibia (RANK mRNA [1]; 30 mg/kg daily sc for 2 days): 34%; RANK mRNA % inhibition (normalized to PTH) Proximal Tibia (RANK mRNA [1]; 30 mg/kg daily sc for 3 days): 14%; RANK mRNA % inhibition (normalized to PTH) Proximal Tibia (RANK mRNA [1]; 30 mg/kg daily sc for 5 days): 32%; RANK mRNA % inhibition (normalized to PTH) Proximal Tibia (RANK mRNA [1]; 30 mg/kg daily sc for 7 days): 61%; RANK mRNA % inhibition (normalized to PTH) Proximal Tibia (RANK mRNA [1]; 30 mg/kg daily sc for 10 days): 37%; RANK mRNA % inhibition (normalized to PTH) Proximal Tibia (RANK mRNA [1]; 30 mg/kg daily sc for 14 days): 53%; RANK mRNA % inhibition (normalized to PTH) Proximal Tibia (RANK mRNA [1]; 30 mg/kg daily sc for 21 days): 52%; RANK mRNA expression in the proximal tibia (RANK mRNA [1]; [7]): inhibition of RANK mRNA in the proximal tibia; Serum calcium concentration ([2]; 30 mg/kg daily sc for 2 days): 20 mg/dL; Serum calcium concentration ([2]; 30 mg/kg daily sc for 3 days): 17 mg/dL; Serum calcium concentration ([2]; 30 mg/kg daily sc for 5 days): 16 mg/dL; Serum calcium concentration ([2]; 30 mg/kg daily sc for 7 days): 16 mg/dL; Serum calcium concentration ([2]; 30 mg/kg daily sc for 10 days): 18 mg/dL; Serum calcium concentration ([2]; 30 mg/kg daily sc for 14 days): 15 mg/dL; Serum calcium concentration ([2]; 30 mg/kg daily sc for 21 days): 15 mg/dL; PTH-induced increase in serum calcium concentration [2, 7]: lessens the PTH-induced increase in serum calcium concentration; RANK mRNA % inhibition (normalized to PTH) Bone Marrow (RANK mRNA [3]; 30 mg/kg daily sc for 2 days): 0%; RANK mRNA % inhibition (normalized to PTH) Bone Marrow (RANK mRNA [3]; 30 mg/kg daily sc for 3 days): 35%; RANK mRNA % inhibition (normalized to PTH) Bone Marrow (RANK mRNA [3]; 30 mg/kg daily sc for 5 days): 32%; RANK mRNA % inhibition (normalized to PTH) Bone Marrow (RANK mRNA [3]; 30 mg/kg daily sc for 7 days): 44%; RANK mRNA % inhibition (normalized to PTH) Bone Marrow (RANK mRNA [3]; 30 mg/kg daily sc for 10 days): 18%; RANK mRNA % inhibition (normalized to PTH) Bone Marrow (RANK mRNA [3]; 30 mg/kg daily sc for 14 days): 36%; RANK mRNA % inhibition (normalized to PTH) Bone Marrow (RANK mRNA [3]; 30 mg/kg daily sc for 21 days): 8%

B1: parathyroid hormone (peptide, UniProt P01270 32-115, looked up)
Parathyroid hormone: SVSEIQLMHNLGKHLNSMERVEWLRKKLQDVHNFVALGAPLAPRDAGSQRPRKKEDNVLVESHEKSLGEADKADVNVLTKAKSQ
notes: parathyroid hormone infused to induce bone resorption in the mouse model
Question: With B1 as the molecule, how does the “Serum Calcium Concentration % control” value ([4]; 6 hours) read?
Answer: Its value is 109 % control.

Question: What about the “Serum Calcium Concentration % control” value ([4]; 12 hours) of the same molecule?
Answer: The value was 115 % control.

Question: And the “Serum Calcium Concentration % control” value ([4]; 18 hours)?
Answer: Its value is 125 % control.

Question: What about the “Serum Calcium Concentration % control” value ([4]; 24 hours (4 ug/100 g)) of the same molecule?
Answer: Its value is 230 % control.

Question: And the “RANKL mRNA % control” value (RANKL mRNA [5]; 0.5 hours, FuGENE 6 treatment)?
Answer: Its value is 185 % control.

Question: And the “RANKL mRNA % control” value (RANKL mRNA [5]; 0.5 hours, saline treatment)?
Answer: The value was 168 % control.

Question: And the “RANKL mRNA % control” value (RANKL mRNA [5]; 1 hour, FuGENE 6 treatment)?
Answer: The value was 750 % control.

Question: And the “RANKL mRNA % control” value (RANKL mRNA [5]; 1 hour, saline treatment)?
Answer: Its value is 700 % control.

Question: And the “RANKL mRNA % control” value (RANKL mRNA [5]; 2 hours, FuGENE 6 treatment)?
Answer: Its value is 1275 % control.

Question: And the “RANKL mRNA % control” value (RANKL mRNA [5]; 2 hours, saline treatment)?
Answer: Its value is 908 % control.

Question: And the “RANKL mRNA % control” value (RANKL mRNA [5]; 4 hours, FuGENE 6 treatment)?
Answer: Its value is 467 % control.

Question: And the “RANKL mRNA % control” value (RANKL mRNA [5]; 4 hours, saline treatment)?
Answer: Its value is 383 % control.

Question: And the “RANKL mRNA % control” value (RANKL mRNA [5]; 6 hours, FuGENE 6 treatment)?
Answer: Its value is 340 % control.

Question: What about the “RANKL mRNA % control” value (RANKL mRNA [5]; 6 hours, saline treatment) of the same molecule?
Answer: Its value is 326 % control.

Question: And the “RANKL mRNA expression in response to PTH” value (RANKL mRNA [5]; primary mouse osteoblast cells, in the presence of saline or FuGENE 6)?
Answer: The value was “upregulated in response to PTH”.

Question: And the “RANKL mRNA % control” value (RANKL mRNA [6]; 12 hours)?
Answer: The value was 242 % control.

Question: And the “RANKL mRNA % control” value (RANKL mRNA [6]; 18 hours)?
Answer: The value was 117 % control.

Question: And the “RANKL mRNA % control” value (RANKL mRNA [6]; 24 hours (4 ug/100 g))?
Answer: Its value is 205 % control.
